Biological target: T1, ACE extracted from rabbit lungs (Oryctolagus cuniculus, UniProt P12822)
T1 construct: solutions of ACE extracted from rabbit lungs; from tissue; host or cells: rabbit lung
T1 sequence (P12822 34-1310): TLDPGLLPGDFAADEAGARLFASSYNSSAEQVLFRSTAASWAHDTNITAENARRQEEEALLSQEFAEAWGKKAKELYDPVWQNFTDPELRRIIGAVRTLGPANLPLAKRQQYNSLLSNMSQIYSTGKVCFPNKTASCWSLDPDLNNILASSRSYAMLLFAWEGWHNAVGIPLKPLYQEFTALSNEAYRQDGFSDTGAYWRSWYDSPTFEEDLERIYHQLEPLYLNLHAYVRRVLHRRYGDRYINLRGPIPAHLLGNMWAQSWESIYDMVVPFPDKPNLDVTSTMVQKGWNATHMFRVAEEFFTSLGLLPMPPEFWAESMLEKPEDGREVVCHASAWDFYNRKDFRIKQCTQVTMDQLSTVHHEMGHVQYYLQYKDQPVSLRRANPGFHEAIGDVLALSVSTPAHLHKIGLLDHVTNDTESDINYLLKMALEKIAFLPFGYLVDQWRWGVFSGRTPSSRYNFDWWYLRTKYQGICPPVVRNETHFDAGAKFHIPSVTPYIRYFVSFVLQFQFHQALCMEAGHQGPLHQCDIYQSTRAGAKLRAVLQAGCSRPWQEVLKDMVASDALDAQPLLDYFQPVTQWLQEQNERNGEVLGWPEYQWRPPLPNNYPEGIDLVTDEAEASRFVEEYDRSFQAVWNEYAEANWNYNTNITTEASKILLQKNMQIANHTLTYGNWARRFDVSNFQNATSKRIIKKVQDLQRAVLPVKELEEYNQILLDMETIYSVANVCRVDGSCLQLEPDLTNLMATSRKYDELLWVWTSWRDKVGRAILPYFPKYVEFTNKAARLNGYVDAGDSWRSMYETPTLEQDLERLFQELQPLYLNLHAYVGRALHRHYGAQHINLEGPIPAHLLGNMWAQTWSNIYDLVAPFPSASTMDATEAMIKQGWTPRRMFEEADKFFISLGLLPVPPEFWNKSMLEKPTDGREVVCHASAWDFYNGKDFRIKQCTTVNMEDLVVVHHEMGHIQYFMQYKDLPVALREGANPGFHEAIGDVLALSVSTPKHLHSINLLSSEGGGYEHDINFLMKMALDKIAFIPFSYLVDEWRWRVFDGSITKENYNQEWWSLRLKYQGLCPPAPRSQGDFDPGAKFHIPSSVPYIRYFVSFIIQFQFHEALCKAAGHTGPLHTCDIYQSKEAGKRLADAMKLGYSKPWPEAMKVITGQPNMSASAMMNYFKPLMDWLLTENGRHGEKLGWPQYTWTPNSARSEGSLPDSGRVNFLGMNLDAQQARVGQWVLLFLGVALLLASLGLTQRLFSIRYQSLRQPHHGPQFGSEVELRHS
Assay: inhibition of ACE activity in vitro (hippurylhistidylleucine substrate; procedure of Cushman et al.)
Assay type: biochemical
Details: borate buffer with sodium chloride, pH 8.3, 37° C., 30 minutes, hippuric acid by UV 228 nm
Protocol: As noted above, the compounds of the present invention have the ability to inhibit the activity of ACE, the enzyme which converts angiotensin I to angiotensin II and also inactivates bradykinin. […] W. Cushman et al. [Biochemical Pharmachology, 20, 1637 (1971)]. […] The enzymatic reaction was allowed to proceed at 37° C. for 30 minutes, after which time the reaction was terminated by adding 1N aqueous hydrochloric acid. […] The residual hippuric acid was dissolved in water. The amount of hippuric acid in the resulting aqueous solution was determined by the absorbency to ultraviolet radiation at 228 nm. These values were then plotted to form a curve indicating the relationship between the amount of hippuric acid formed and the concentration of the test compound. The IC50 value can be obtained by reading on this curve the concentration of the test compound which reduces the amount of hippuric acid formed to one half of that formed when no test compound is present.

SMILES | IC50
O=C(O)CN1CC(c2ccccc2)SCC(NC(CCc2ccccc2)C(=O)O)C1=O (single isomer, unassigned) [C] | 2.4 nM
O=C(O)CN1CC(c2ccsc2)SCC(NC(CCc2ccccc2)C(=O)O)C1=O (single isomer, unassigned) [D] | 2.5 nM
O=C(O)CN1CC(c2cccs2)SCC(NC(CCc2ccccc2)C(=O)O)C1=O (single isomer, unassigned) [E] | 2.4 nM
O=C(O)CN1CC(c2ccco2)SCC(NC(CCc2ccccc2)C(=O)O)C1=O (single isomer, unassigned) [F] | 3 nM
O=C(O)CN1CC(c2cccc3ccccc23)SCC(NC(CCc2ccccc2)C(=O)O)C1=O (single isomer, unassigned) [H] | 1.6 nM
O=C(O)CN1CC(c2ccc3ccccc3c2)SCC(NC(CCc2ccccc2)C(=O)O)C1=O (single isomer, unassigned) [I] | 2 nM
CC(C)[C@@H]1CSC[C@H](N[C@@H](CCc2ccccc2)C(=O)O)C(=O)N1CC(=O)O [B] | 1.6 nM
C[C@@H]1CSC[C@H](N[C@@H](CCc2ccccc2)C(=O)O)C(=O)N1CC(=O)O [J] | 3 nM

These reach a lower IC50. Values come first.

IC50 | SMILES
1.4 nM | O=C(O)CN1C(=O)[C@@H](N[C@@H](CCc2ccccc2)C(=O)O)CSC[C@H]1c1cccs1 [G]
1.3 nM | O=C(O)CN1C(=O)[C@@H](N[C@@H](CCc2ccccc2)C(=O)O)CSC[C@@H]1Cc1ccccc1 [K]
1.1 nM | O=C(O)CN1C(=O)[C@@H](N[C@@H](CCc2ccccc2)C(=O)O)CSC[C@H]1c1ccccc1 [A]
